Activity calls are given as the source filed them.
What was measured:
Protein Rev = Protein Rev (Human immunodeficiency virus type 1 group M subtype B (isolate HXB2)(HIV-1), UniProt P04618); experiment: blockers of HIV Rev/RRE RNA complex – biochemical, fluorescence polarization, HIV-1, dose response (AID 434976); set-up: species or system Human immunodeficiency virus 1
[1] = molecular target: Female germline-specific tumor suppressor gld-1 (Caenorhabditis elegans, UniProt Q17339); experiment: blockers of GLD-1/TGE RNA complex formation – biochemical, fluorescence polarization, C. elegans, dose response (AID 2802);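 note: fluorescence polarization of labeled TGE RNA bound by purified gld-1 protein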
Sequence of Female germline-specific tumor suppressor gld-1 (Q17339 whole entry): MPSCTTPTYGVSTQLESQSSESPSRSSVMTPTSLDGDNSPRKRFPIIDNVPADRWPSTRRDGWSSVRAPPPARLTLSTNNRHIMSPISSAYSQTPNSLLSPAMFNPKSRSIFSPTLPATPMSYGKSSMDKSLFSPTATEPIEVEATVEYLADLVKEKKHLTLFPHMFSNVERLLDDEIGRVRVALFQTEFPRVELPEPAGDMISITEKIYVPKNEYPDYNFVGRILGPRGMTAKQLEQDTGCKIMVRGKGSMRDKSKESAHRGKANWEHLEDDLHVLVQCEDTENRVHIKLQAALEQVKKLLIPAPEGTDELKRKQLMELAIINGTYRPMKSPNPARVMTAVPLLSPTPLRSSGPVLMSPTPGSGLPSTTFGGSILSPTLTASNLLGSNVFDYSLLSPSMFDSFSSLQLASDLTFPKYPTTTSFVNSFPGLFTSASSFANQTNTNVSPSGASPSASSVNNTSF

HEK293 = experiment: cells; settings: Homo sapiens
Interleukin-8 = Interleukin-8 (Homo sapiens, UniProt P10145); experiment: SAR analysis of tumor necrosis factor alpha (TNF-alpha) induced IL-8 secretion in MCF-7/NOD1 cells. [Related pubchem assays (depositor defined):AID1575, AID2250, AID2260]; format: functional, cell-based
Sequence of Interleukin-8 (P10145 whole entry): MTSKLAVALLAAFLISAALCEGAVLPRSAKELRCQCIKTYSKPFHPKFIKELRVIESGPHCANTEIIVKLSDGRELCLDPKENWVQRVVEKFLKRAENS

Tumor necrosis factor = Tumor necrosis factor (Homo sapiens, UniProt P01375); experiment: analog potency on TNFa NF-kB signaling – cell-based, revised, SAR follow-up (AID 2337); format: functional
Sequence of Tumor necrosis factor (P01375 whole entry): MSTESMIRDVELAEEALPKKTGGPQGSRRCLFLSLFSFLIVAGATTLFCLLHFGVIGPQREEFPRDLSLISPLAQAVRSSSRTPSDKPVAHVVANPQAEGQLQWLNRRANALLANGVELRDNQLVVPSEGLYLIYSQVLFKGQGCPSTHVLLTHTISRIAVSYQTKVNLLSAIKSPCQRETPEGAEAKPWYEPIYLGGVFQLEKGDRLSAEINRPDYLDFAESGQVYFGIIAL

[2] = molecular target: T1, Zinc finger protein mex-5 (Caenorhabditis elegans, UniProt Q9XUB2); experiment: potency of MEX-5 RNA-binding blockers – biochemical, C. elegans, fluorescence polarization, dose response (AID 1960)
T1 sequence (Q9XUB2 whole entry): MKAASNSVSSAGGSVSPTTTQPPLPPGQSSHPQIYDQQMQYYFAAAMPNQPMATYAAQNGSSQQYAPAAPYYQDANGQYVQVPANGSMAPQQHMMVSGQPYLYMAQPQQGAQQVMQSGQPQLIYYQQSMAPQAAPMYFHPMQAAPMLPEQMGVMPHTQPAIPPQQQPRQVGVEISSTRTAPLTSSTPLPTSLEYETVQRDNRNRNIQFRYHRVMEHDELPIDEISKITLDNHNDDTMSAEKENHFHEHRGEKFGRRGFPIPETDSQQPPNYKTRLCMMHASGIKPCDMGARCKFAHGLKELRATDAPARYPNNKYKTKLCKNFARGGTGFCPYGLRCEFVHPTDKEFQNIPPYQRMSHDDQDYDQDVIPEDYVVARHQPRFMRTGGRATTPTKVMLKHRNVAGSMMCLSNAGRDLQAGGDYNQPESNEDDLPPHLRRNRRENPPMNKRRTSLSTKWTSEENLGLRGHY

[3] = molecular target: T2, Intestinal-type alkaline phosphatase (Mus musculus, UniProt P24822); experiment: PubChem AID 488875; format: functional
T2 sequence (P24822 whole entry): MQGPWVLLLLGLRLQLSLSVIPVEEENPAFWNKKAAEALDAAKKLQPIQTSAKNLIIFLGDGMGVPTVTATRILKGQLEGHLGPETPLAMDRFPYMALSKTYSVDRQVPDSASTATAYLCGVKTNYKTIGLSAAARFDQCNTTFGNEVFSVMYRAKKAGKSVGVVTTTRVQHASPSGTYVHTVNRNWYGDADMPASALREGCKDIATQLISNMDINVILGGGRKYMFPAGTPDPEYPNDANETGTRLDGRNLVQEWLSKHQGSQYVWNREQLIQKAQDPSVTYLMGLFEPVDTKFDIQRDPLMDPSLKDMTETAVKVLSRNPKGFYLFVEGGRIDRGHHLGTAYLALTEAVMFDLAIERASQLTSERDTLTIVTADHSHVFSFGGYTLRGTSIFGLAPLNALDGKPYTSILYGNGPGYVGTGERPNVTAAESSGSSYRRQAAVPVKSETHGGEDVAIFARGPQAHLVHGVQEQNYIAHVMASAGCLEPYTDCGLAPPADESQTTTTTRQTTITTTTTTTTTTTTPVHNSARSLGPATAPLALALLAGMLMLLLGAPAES

[4] = molecular target: T3, Alkaline phosphatase, tissue-nonspecific isozyme (Homo sapiens, UniProt P05186); experiment: activation of tissue-nonspecific alkaline phosphatase – biochemical, TNAP isozyme, human IAP uHTS hits, selectivity assay for human IAP activator project, dose response (AID 488886); format: functional;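 note: potency of compounds raising TNAP activity as a selectivity check on IAP activators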
T3 sequence (P05186 whole entry): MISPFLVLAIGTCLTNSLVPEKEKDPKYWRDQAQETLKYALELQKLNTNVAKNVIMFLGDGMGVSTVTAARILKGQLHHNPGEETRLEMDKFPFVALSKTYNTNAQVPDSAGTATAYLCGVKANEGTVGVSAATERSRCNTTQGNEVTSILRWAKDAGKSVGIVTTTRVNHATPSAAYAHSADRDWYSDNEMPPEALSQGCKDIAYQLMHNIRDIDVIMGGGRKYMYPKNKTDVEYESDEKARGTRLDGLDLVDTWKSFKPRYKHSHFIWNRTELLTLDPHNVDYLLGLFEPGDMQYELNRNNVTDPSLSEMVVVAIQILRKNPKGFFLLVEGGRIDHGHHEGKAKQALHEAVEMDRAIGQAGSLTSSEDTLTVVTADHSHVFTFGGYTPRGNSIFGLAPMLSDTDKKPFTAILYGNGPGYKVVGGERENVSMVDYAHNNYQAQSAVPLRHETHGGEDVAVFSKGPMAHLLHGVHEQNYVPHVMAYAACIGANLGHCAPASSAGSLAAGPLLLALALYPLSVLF

[5] = molecular target: T4, Intestinal-type alkaline phosphatase (Homo sapiens, UniProt P09923); experiment: human intestinal alkaline phosphatase activators, dose response, biochemical, luminescence, uHTS hits (AID 463120); format: functional
T4 sequence (P09923 whole entry): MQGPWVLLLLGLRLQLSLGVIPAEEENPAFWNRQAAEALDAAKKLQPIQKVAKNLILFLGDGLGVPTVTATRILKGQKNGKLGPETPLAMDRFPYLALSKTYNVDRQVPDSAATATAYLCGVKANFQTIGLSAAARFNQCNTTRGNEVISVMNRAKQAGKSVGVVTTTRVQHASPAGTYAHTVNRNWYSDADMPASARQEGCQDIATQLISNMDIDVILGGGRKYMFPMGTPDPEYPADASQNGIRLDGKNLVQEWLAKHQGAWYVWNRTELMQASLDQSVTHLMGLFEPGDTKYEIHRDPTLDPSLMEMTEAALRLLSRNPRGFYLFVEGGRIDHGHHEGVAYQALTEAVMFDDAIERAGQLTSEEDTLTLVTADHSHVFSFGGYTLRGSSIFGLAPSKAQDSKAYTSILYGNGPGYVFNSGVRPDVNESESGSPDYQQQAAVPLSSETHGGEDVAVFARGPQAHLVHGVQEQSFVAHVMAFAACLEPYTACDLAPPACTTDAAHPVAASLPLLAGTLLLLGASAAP

[6] = molecular target: T4, Intestinal-type alkaline phosphatase; experiment: activation of human intestinal alkaline phosphatase – biochemical, luminescent, uHTS hits, set 2, dose response (AID 488817); format: functional;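 note: potency of activators that raise enzyme activity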
[7] = molecular target: T5, RNA-binding protein pos-1 (Caenorhabditis elegans, UniProt G5EF15); experiment: disruptors of C. elegans POS-1 RNA interaction – biochemical, fluorescence polarization, dose response (AID 1964);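 note: purified POS-1 fused to maltose binding protein made in E. coli; potency of compounds blocking POS-1 binding to fluorescent RNA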
T5 sequence (G5EF15 whole entry): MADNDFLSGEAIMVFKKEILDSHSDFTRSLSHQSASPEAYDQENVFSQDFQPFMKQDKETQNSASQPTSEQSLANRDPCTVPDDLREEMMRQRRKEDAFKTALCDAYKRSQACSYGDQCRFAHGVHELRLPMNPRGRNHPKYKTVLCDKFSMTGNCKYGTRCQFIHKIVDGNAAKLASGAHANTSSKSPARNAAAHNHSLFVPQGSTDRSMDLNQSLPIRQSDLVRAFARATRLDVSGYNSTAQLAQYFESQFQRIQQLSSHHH

[8] = molecular target: T2, Intestinal-type alkaline phosphatase; experiment: PubChem AID 488874; format: functional
[9] = glucagon-like peptide-1 release potency in STC-1, concentration-response, half-maximal inhibitory concentration in the STC-1 line (AID 1117345); format: functional, cell-based
[10] = viability loss of HPDE-C7K cells – cell-based, fluorescence, HTS, primary screen (AID 431); format: functional; settings: Homo sapiens
Aminopeptidase N = molecular target: T6, Aminopeptidase N (Plasmodium falciparum FcB1/Columbia, UniProt O96935); experiment: malaria alanyl aminopeptidase activity blockers – biochemical, fluorogenic H-Leu-NHMec substrate, 1536-well (AID 1445); set-up: species or system Plasmodium falciparum 3D7, 3D7
T6 sequence (O96935 whole entry): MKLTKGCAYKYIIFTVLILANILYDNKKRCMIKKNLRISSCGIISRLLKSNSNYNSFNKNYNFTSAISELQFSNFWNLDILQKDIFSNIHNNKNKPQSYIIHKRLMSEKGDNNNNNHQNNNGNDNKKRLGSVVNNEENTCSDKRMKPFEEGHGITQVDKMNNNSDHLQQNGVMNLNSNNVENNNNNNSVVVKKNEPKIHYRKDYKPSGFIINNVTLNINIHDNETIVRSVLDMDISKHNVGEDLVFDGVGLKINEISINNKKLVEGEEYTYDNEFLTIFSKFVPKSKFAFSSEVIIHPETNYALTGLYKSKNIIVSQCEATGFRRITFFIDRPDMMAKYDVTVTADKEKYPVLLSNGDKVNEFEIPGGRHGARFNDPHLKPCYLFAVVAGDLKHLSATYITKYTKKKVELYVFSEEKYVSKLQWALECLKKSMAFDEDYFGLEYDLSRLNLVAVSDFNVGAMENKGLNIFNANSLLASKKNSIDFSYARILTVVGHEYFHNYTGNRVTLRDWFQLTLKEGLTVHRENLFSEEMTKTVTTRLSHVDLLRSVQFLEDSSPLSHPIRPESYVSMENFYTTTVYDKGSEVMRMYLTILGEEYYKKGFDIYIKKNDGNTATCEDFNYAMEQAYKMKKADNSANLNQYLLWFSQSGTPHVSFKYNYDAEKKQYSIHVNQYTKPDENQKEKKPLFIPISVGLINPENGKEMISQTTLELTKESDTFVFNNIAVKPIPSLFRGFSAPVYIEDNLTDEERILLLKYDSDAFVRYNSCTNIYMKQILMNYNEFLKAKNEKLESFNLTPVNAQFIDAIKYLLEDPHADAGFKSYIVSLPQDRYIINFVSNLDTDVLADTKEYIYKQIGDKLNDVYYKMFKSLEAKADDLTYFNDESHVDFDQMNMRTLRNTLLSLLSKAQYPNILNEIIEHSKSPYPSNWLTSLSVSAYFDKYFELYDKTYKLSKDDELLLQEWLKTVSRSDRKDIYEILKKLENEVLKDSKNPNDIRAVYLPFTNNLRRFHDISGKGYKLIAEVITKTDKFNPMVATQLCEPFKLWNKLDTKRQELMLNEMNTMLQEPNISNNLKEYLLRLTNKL

[11] = HCT116 cell viability decrease, GSK3B pretreatment – CellTiter-Glo, IC50, dose response (AID 1117339); format: functional; settings: HCT-116
[12] = RKO cell viability reduction, dose response, CellTiter-Glo luminescence (AID 1117322); format: functional
[13] = Potency on glucagon-like peptide 1 release, dose-response in NCI-H716 cell line, half maximal inhibitory concentration (AID 1117344); format: functional, cell-based
[14] = HPDE-C7 pancreatic duct cell viability loss – fluorescence, HTS (AID 430); format: functional, cell-based; settings: Homo sapiens
Estrogen receptor beta [15] = molecular target: T7, Estrogen receptor beta (Homo sapiens, UniProt Q92731); experiment: blockers of SRC-3 recruitment to ERβ – biochemical, ELISA, streptavidin-HRP readout, orthogonal assay, confirmation (AID 1060)
T7 sequence (Q92731 whole entry): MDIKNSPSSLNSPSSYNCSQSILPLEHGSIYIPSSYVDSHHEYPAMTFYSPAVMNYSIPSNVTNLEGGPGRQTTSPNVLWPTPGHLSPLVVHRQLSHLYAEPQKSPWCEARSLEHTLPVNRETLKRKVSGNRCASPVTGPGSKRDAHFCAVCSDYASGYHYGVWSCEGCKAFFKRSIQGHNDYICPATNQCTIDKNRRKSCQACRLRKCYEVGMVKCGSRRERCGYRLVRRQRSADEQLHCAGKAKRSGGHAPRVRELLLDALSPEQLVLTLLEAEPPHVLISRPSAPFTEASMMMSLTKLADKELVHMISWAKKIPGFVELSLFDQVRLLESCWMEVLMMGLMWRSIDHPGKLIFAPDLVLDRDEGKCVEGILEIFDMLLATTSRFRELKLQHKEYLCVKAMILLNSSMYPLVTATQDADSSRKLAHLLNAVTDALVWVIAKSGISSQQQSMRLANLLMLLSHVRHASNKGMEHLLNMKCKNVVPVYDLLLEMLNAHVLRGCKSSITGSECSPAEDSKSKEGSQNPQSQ

[16] = rise of 4N DNA cells, HeLa – IC50, dose response (AID 1117351); format: functional, cell-based
[17] = molecular target: Induced myeloid leukemia cell differentiation protein Mcl-1 (Homo sapiens, UniProt Q07820); format: functional
Sequence of Induced myeloid leukemia cell differentiation protein Mcl-1 (Q07820 whole entry): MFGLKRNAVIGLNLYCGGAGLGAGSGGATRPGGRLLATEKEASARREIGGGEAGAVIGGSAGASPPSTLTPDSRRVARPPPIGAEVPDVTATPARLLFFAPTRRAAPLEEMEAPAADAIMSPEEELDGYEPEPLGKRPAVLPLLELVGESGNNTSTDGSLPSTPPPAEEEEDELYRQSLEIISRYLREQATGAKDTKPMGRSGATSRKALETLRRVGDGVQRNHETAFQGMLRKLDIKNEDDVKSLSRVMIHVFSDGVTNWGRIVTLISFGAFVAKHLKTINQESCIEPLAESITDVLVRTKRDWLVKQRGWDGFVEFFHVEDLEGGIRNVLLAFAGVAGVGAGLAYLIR

[18] = CellTiter-Glo luminescence survival assay, SW480 colon tumor line, concentration-response curve, half-maximal inhibitory concentration (AID 1117338); format: functional
[19] = molecular target: Envelope glycoprotein gp160 (Human immunodeficiency virus 1, UniProt Q6QLK5); experiment: cell-free HIV fusion peptide-binding blockers – biochemical, uHTS, fluorescence dequenching, […] (AID 1986)
Sequence of Envelope glycoprotein gp160 (Q6QLK5 whole entry, the tested form may be a part): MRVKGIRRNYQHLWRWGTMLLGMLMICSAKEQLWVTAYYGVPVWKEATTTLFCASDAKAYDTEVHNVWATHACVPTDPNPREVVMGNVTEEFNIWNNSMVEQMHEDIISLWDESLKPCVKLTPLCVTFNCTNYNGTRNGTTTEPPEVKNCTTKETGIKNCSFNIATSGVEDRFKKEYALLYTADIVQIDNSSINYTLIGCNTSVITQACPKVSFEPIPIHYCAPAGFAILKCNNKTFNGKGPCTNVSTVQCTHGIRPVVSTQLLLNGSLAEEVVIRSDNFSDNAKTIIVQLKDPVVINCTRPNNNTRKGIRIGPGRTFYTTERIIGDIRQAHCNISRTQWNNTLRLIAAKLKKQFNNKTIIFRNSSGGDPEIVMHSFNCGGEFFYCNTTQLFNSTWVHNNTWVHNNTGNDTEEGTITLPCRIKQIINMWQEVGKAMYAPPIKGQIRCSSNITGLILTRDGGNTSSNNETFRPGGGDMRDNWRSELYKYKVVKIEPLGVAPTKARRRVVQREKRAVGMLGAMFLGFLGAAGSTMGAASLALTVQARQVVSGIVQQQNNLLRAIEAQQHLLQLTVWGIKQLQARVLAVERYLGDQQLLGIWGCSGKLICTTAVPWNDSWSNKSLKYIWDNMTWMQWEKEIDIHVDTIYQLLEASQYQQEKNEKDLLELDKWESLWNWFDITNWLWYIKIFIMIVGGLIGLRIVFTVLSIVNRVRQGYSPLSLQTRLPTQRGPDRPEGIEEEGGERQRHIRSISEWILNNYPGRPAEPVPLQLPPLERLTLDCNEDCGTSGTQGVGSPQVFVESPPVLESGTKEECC

[20] = Reduced DLD-1 viability, concentration-response, CellTiter-Glo luminescence (AID 1117352); format: functional
[21] = molecular target: T8, Calpain-2 catalytic subunit (Sus scrofa, UniProt P43367); experiment: m-calpain protease blockers, concentration series – biochemical, fluorogenic peptide substrate, dose response (AID 1420); format: functional
T8 sequence (P43367 whole entry): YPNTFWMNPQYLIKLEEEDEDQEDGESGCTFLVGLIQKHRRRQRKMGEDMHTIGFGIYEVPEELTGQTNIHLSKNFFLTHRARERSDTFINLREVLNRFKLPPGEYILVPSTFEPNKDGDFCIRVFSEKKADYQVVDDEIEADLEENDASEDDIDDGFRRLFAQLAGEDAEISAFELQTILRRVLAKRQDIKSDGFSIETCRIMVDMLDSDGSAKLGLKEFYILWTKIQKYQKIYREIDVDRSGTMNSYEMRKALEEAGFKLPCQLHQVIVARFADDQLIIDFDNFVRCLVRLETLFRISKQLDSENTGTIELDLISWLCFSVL

[22] = SNU-C1 cell viability reduction, dose response, CellTiter-Glo luminescence (AID 1117323); format: functional, cell-based
Estrogen receptor beta [23] = molecular target: T7, Estrogen receptor beta
[24] = rise of 2N DNA cells, HeLa – IC50, dose response (AID 1117349); format: functional, cell-based
[25] = cytotoxicity toward HT-29 cells – cell-based, CellTiter-Glo luminescence, IC50, dose response (AID 1117330); format: functional
[26] = cytotoxicity toward Colo320 cells – cell-based, CellTiter-Glo luminescence, IC50, dose response (AID 1117334); format: functional; settings: COLO 320
Large T antigen = Large T antigen (Simian virus 40, UniProt P03070); experiment: A confirmatory biochemical assay using the ADP-Hunter methodology, purified TAg, and ATP to quantify activity of synthesized compounds that inhibit the ATPase activity of Tag (3). [Related pubchem assays (depositor defined):AID1903, AID1909, AID2102, AID2501, AID2615, AID2775, AID435001, AID449729]; set-up: species or system Betapolyomavirus macacae
Sequence of Large T antigen (P03070 whole entry): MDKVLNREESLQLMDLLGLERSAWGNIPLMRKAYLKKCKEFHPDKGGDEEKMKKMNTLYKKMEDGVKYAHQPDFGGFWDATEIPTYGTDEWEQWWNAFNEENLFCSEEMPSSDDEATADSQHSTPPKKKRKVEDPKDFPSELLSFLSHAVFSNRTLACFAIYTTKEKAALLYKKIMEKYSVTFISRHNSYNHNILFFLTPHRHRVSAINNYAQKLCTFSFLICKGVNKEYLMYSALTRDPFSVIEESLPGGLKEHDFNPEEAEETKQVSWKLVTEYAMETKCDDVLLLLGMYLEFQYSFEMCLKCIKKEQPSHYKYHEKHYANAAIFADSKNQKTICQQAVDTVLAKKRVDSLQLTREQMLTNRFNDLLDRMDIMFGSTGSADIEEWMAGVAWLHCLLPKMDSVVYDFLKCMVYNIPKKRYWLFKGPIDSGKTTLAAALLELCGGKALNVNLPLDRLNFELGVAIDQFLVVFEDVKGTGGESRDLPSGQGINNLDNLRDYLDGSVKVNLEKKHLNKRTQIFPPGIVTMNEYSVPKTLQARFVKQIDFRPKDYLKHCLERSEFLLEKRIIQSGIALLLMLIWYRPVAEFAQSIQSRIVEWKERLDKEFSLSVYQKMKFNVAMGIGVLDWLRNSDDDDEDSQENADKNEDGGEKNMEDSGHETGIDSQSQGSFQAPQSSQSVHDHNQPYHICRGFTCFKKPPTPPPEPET

[27] = cytotoxicity toward HCT116 cells – cell-based, CellTiter-Glo luminescence, IC50, dose response (AID 1117332); format: functional; settings: HCT-116
[28] = molecular target: DNA dC->dU-editing enzyme APOBEC-3A (Homo sapiens, UniProt P31941); experiment: A3A deaminase inhibition for selectivity – biochemical, dose response (AID 504722); format: functional
[29] = molecular target: DNA dC->dU-editing enzyme APOBEC-3G (Homo sapiens, UniProt Q9HC16); experiment: Dose Response confirmation of small molecule APOBEC3G DNA Deaminase Inhibitors via a fluorescence-based single-stranded DNA deaminase assay. [Related pubchem assays (depositor defined):AID493012, AID493028]; format: functional
Sequence of DNA dC->dU-editing enzyme APOBEC-3G (Q9HC16 whole entry): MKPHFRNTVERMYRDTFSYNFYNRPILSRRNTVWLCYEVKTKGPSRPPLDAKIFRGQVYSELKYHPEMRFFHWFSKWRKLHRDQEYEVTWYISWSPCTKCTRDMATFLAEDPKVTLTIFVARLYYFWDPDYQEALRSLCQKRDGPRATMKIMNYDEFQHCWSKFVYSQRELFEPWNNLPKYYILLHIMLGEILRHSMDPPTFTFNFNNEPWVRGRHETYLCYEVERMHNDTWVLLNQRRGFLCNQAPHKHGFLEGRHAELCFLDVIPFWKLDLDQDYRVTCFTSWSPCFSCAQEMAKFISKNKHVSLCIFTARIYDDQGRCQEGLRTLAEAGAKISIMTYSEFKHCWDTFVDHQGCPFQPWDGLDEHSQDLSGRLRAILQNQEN

Sequence of Protein Rev (P04618 whole entry): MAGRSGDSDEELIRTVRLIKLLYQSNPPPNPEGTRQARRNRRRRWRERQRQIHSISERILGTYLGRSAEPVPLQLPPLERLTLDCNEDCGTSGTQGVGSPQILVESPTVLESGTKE

## CC1CN(C2=Nc3cccc4cccc2c34)CC(C)O1 (stereo not given)
Protein Rev
  IC50: 18.2 µM (not active)
[1]
  IC50: 9.4 µM (active)

## Cc1ccc(S(=O)(=O)n2cnc3ccccc32)cc1
HEK293
  IC50: > 20 µM (inactive)
Interleukin-8
  IC50: > 5 µM (inactive)
Tumor necrosis factor
  IC50: > 20 µM (inactive)

## O=C(NNC(=S)NC(=O)c1ccccc1[N+](=O)[O-])c1ccccc1O
[2]
  EC50: 32.2 µM (active)
[3]
  EC50: > 100 µM (inactive)
[4]
  EC50: 11.2 µM (active)
[5]
  EC50: 9.16 µM (active)
[6]
  EC50: 9.62 µM (active)
[7]
  EC50: 134 µM (active)
[8]
  IC50: > 100 µM (inactive)

## Oc1c(Cl)cc(Cl)cc1Sc1cc(Cl)cc(Cl)c1O [BITHIONOL]
[9]
  IC50: > 20 µM (inactive)
[10]
  EC50: 1.34 µM (active)
Aminopeptidase N
  IC50: 42.9 µM (active)
[11]
  IC50: 0.001 µM (active)
[12]
  IC50: 0.001 µM (active)
[13]
  IC50: 19.4 µM (inactive)
[14]
  EC50: 1.21 µM (active)
Estrogen receptor beta [15]
  IC50: > 109 µM (not active)
[16]
  IC50: > 10 µM (inactive)
[17]
  IC50: 1.9 µM (active)
[18]
  IC50: 0.001 µM (active)
[19]
  IC50: 6.16 µM (active)
[20]
  IC50: 0.001 µM (active)
[21]
  IC50: 4.75 µM (not active)
[22]
  IC50: 0.00867 µM (active)
Estrogen receptor beta [23]
  IC50: 8.15 µM (active)
[24]
  IC50: > 10 µM (inactive)
[25]
  IC50: 0.996 µM (active)
[26]
  IC50: 0.015 µM (active)
Large T antigen
  IC50: 35.7 µM (active)
[27]
  IC50: 0.001 µM (active)

## Cc1ccc(-c2nnc(S)n2/N=C\c2ccco2)cc1
[28]
  IC50: > 100 µM (inactive)
[29]
  IC50: 2.86 µM (active)
